Reference: PMC11144398, “Crizotinib inhibits the metabolism of tramadol by non-competitive suppressing the activities of CYP2D1 and CYP3A2” (PeerJ, 2024)

What was measured:
[1] = Pharmacokinetics of tramadol and O-desmethyl tramadol in SD rats with or without crizotinib; settings: male, Sprague-Dawley, rat, serum, po, 20 mg/kg; for CL/F: CLz/F; for Vd/F: Vz/F; for half-life: t1/2z
Source text: Ultra-performance liquid chromatography-tandem mass spectrometry (UPLC-MS/MS) was utilized to measure the concentration of both tramadol and O-desmethyl tramadol. Separation was achieved using a Waters Acquity UPLC BEH C18 column, with dimensions of 2.1 mm × 50 mm and 1.7-µm particle size (Waters Corp., Milford, MA, USA), and quantitation was completed using a Waters XEVO TQD triple quadruple mass spectrometer. The mobile phase was composed of 0.1% formic acid (A) and ACN (B), and the gradient elution was carried out with a flow rate of 0.4 mL/min, following the procedure: 90–10% A (0–1.4 min), 10–90% A (1.4–1.5 min), and 90% A (1.5–2.0 min). Positive mode was used to detect the analytes with the following transitions: m/z 264.2 →58.0, m/z 250.2 →58.2, and m/z 285.0 →154.0 for tramadol, O-desmethyl tramadol, and diazepam (used as an internal standard, IS), respectively. The collision energy was 20 V for tramadol and O-desmethyl tramadol, and 25 V for diazepam. The standard for tramadol and O-desmethyl tramadol were dissolved in a small amount of DMSO (the concentration was 1 mg/mL) then diluted with acetonitrile (the final concentration was 1 ng/mL–1,000 ng/mL). Diazepam was diluted with methanol gradually to 500 ng/mL).
SD male rats (280 ± 15 g) were purchased from the Shanghai Animal Experimental Center. Before the experiment, the rats were kept in the animal room for two weeks with adequate water and food in order to adapt to the new environment. The room temperature was kept at 20–25 °C and the humidity was kept at 50%–65%. The change period of light and dark conditions was 12 h, which simulates the change of day and night. All animal experiments were approved by the Ethics Committee of Wenzhou Medical University (Approval number: xmsq2022-0621).
Generally speaking, only when at least five or more animals are involved in the experiment can the results be convincing. Thus, twenty SD rats were randomly divided into four groups with five animals per group: group A received a single dose of 20 mg/kg of tramadol; group B received a single dose of 45 mg/kg of crizotinib and 20 mg/kg of tramadol; group C received multiple doses of 0.5% carboxymethylcellulose sodium salt (CMC-Na) for 7 days and a single dose of 20 mg/kg of tramadol; and group D received multiple doses of 45 mg/kg of crizotinib for 7 days and a single dose of 20 mg/kg of tramadol. Prior to the experiment, all rats were fasted for 12 h but allowed free access to water. Once the experiment began, 0.5% CMC-Na and crizotinib were administered to groups C and D for 7 days, respectively, then to groups A and B on the last day of the experiment. After 30 min, all rats were orally administered 20 mg/kg of tramadol. Blood samples were collected from the tail vein at 5 min, 15 min, 30 min, 1 h, 2 h, 3 h, 4 h, 6 h, 8 h, 10 h, 12 h, and 24 h following tramadol administration. […] The samples were centrifuged at 2400 × g for 10 min to obtain serum. Each 50 µL serum was mixed with 150 µL ACN and 20 µL IS (500 ng/mL). After vortexing for 2 min and centrifugation at 16200 × g for 10 min at 4 °C, the supernatant was obtained, then we used UPLC-MS/MS analysis to detect the concentration of tramadol and O-desmethyl tramadol. After the experiment, all the animals were euthanized by 5% isoflurane inhalation anesthesia.
The Michaelis–Menten, IC50, and Lineweaver-Burk plots were generated using GraphPad Prism 6.0 software (GraphPad Software, Boston, MA, USA) with corresponding values for Km, IC50, and Ki (inhibition constant).

opioid receptors = system: opioid receptors; parameters: method as in earlier work; settings: ref Allegaert et al., 2015, De La Gastine et al., 2022, Gillen et al., 2000, Gong et al., 2014; cited from earlier work
[2] = system: tramadol metabolism (O-desmethyl tramadol production) in rat liver microsomes; test: Liver microsomal incubation assay: inhibition of tramadol metabolism (O-desmethyl tramadol production) in RLM; type: in vitro ADME; settings: rat, pH 7.4, inhibitory rate on tramadol metabolism (production of O-desmethyl tramadol)
Experimental: All the substance meet the requirements for analysis.
To obtain the Michaelis kinetic parameters of tramadol in RLM and HLM, a 200 µL incubation system was established containing 2 µL RLM or HLM (0.2 mg/mL), 186 µL 1xPBS buffer (pH = 7.4), 2 µL tramadol (10–500 µM), and 10 µL NADPH (1 mM). The mixture was pre-incubated for 5 min without NADPH in a water bath shaking at 37 °C. Then, NADPH was added to initiate the reaction, and the mixture was incubated for another 30 min. The reaction was terminated by adding 400 µL of cold ACN and 20 µL of IS (500 ng/mL).
For drug-interaction screening, 100 µM of each drug (1.6 µL) was added to the system, and added PBS to the final volume of 200 uL. Tramadol concentration was set at 60 µM according to the Km.
To determine the half-maximal inhibitory concentration (IC50), the concentration of crizotinib was set at 0.01, 0.1, 1, 10, 25, 50, and 100 µM, while the concentration of tramadol was constant at 60 µM in RLM or 100 µM in HLM (according to Km).
All data were presented as mean ± SD (standard deviation).

[3] = Group A: single oral 20 mg/kg tramadol alone
[4] = Group B: 20 mg/kg tramadol with crizotinib 45 mg/kg single dose
[5] = Group C: 0.5% CMC-Na for 7 days, then single 20 mg/kg tramadol
[6] = Group D: crizotinib 45 mg/kg for 7 days, then single 20 mg/kg tramadol

SMILES: CN(C)C[C@H]1CCCC[C@]1(O)c1cccc(O)c1 [O-desmethyl tramadol]
- AUC(0-t) [1, 3]: 934 ± 101 ng·h/mL
- AUC(0-t) [1, 4]: 928 ± 145 ng·h/mL
- AUC(0-t) [1, 5]: 1170 ng·h/mL
- AUC(0-t) [1, 6]: 1230 ng·h/mL
- AUC(0-inf) [1, 3]: 937 ± 101 ng·h/mL
- AUC(0-inf) [1, 4]: 981 ± 125 ng·h/mL
- AUC(0-inf) [1, 5]: 1180 ng·h/mL
- AUC(0-inf) [1, 6]: 1250 ng·h/mL
- CL/F [1, 3]: 360 mL/min/kg
- CL/F [1, 4]: 344 mL/min/kg
- CL/F [1, 5]: 288 mL/min/kg
- CL/F [1, 6]: 268 mL/min/kg
- Cmax [1, 3]: 229 ± 56.1 ng/mL
- Cmax [1, 4]: 172 ± 72.1 ng/mL
- Cmax [1, 5]: 292 ± 55.1 ng/mL
- Cmax [1, 6]: 182 ± 65.8 ng/mL
- Tmax [1, 3]: 0.8 ± 0.27 h
- Tmax [1, 4]: 0.7 ± 0.27 h
- Tmax [1, 5]: 1.2 ± 0.45 h
- Tmax [1, 6]: 0.9 ± 0.65 h
- Vd/F [1, 3]: 91.3 ± 12 L/kg
- Vd/F [1, 4]: 170 ± 112 L/kg
- Vd/F [1, 5]: 72.5 ± 25.4 L/kg
- Vd/F [1, 6]: 94.7 ± 26.4 L/kg
- half-life [1, 3]: 2.93 ± 0.09 h
- half-life [1, 4]: 5.68 ± 3.69 h
- half-life [1, 5]: 2.86 ± 0.71 h
- half-life [1, 6]: 4.06 ± 0.91 h
- affinity relative to tramadol (opioid receptors): more than 700 times

SMILES: COc1cccc(C2(O)CCCCC2CN(C)C)c1 (centres unmarked) [Tramadol, tramadol]
- AUC(0-t) [1, 3]: 770 ± 169 ng·h/mL
- AUC(0-t) [1, 4]: 1120 ng·h/mL
- AUC(0-t) [1, 5]: 777 ± 233 ng·h/mL
- AUC(0-t) [1, 6]: 1650 ng·h/mL
- AUC(0-inf) [1, 3]: 786 ± 165 ng·h/mL
- AUC(0-inf) [1, 4]: 1220 ng·h/mL
- AUC(0-inf) [1, 5]: 790 ± 226 ng·h/mL
- AUC(0-inf) [1, 6]: 1650 ng·h/mL
- CL/F [1, 3]: 440 mL/min/kg
- CL/F [1, 4]: 298 mL/min/kg
- CL/F [1, 5]: 459 mL/min/kg
- CL/F [1, 6]: 214 mL/min/kg
- Cmax [1, 3]: 202 ± 82.7 ng/mL
- Cmax [1, 4]: 245 ± 38.3 ng/mL
- Cmax [1, 5]: 246 ± 57.6 ng/mL
- Cmax [1, 6]: 294 ± 85.2 ng/mL
- Tmax [1, 3]: 0.5 h
- Tmax [1, 4]: 0.6 ± 0.22 h
- Tmax [1, 5]: 1.6 ± 0.55 h
- Tmax [1, 6]: 0.9 ± 0.65 h
- Vd/F [1, 3]: 168 ± 88.2 L/kg
- Vd/F [1, 4]: 154 ± 96.5 L/kg
- Vd/F [1, 5]: 307 ± 309 L/kg
- Vd/F [1, 6]: 51.4 ± 19.1 L/kg
- half-life [1, 3]: 4.22 ± 1.68 h
- half-life [1, 4]: 6.91 ± 5.73 h
- half-life [1, 5]: 6.69 ± 5.14 h
- half-life [1, 6]: 2.74 ± 0.56 h

SMILES: CNC(=O)c1cc(Oc2ccc(NC(=O)Nc3ccc(Cl)c(C(F)(F)F)c3)c(F)c2)ccn1 [regorafenib]
- inhibition at 30 min, 100 µM [2]: 83.7%

SMILES: CNC(=O)c1cc(Oc2ccc(NC(=O)Nc3ccc(Cl)c(C(F)(F)F)c3)cc2)ccn1 [sorafenib]
- inhibition at 30 min, 100 µM [2]: 96.7%
